Assay results published in patent US20130310256A1, “HERBICIDAL COMPOSITIONS COMPRISING 4-AMINO-3-CHLORO-5-FLUORO-6-(4-CHLORO-2-FLUORO-3-METHOXYPHENYL) PYRIDINE-2-CARBOXYLIC ACID OR A DERIVATIVE THEREOF AND VLCFA AND LIPID SYNTHESIS INHIBITING HERBICIDES” (DOW AGROSCIENCES LLC, priority 2008, published 2013).

Assays:
[1] = tested on: ECHCO; assay: Example I: postemergence foliar-applied weed control, greenhouse; assay type: in vivo, Echinochloa colona (L.) Link (junglerice); settings: for Visual Weed Control (%) - 19 DAA ECHCO Obs: foliar; for Visual Weed Control Obs: 20 DAA
Text: (§1) Seeds or nutlets of the desired test plant species were planted in a soil matrix prepared by mixing a loam or sandy loam soil (e.g., 28.6 percent silt, 18.8 percent clay, and 52.6 percent sand, with a pH of about 5.8 and an organic matter content of about 1.8 percent) and calcareous grit in an 80 to 20 ratio. The soil matrix was contained in plastic pots with a volume of 1 quart and a surface area of 83.6 square centimeters (cm^2). When required to ensure good germination and healthy plants, a fungicide treatment and/or other chemical or physical treatment was applied. The plants were grown for 8-22 days in a greenhouse with an approximate 14 hr photoperiod which was maintained at about 29° C. during the day and 26° C. during the night. Nutrients (Peters Excel® 15-5-15 5-Ca 2-Mg and iron chelate) were applied in the irrigation solution as needed and water was added on a regular basis. Supplemental lighting was provided with overhead metal halide 1000-Watt lamps as necessary. The plants were employed for testing when they reached the first through fourth true leaf stage.
(§2) Treatments consisted of the acid or esters of 4-amino-3-chloro-5-fluoro-6-(4-chloro-2-fluoro-3-methoxy-phenyl)pyridine-2-carboxylic acid (Compound A), each formulated as an SC (suspension concentrate), and various herbicidal components alone and in combination. Forms of compound A were applied on an acid equivalent basis.
(§3) Other herbicidal components were applied on an active ingredient basis and included very long chain fatty acid (VLCFA) synthesis-inhibiting and fatty acid/lipid synthesis-inhibiting herbicides acetochlor (technical grade material), acetochlor+dichlormid formulated as Topnotch®, pretilachlor (technical grade material), butachlor formulated as Butachlor EC, fentrazamide formulated as Fentrazamide EC, thiobencarb formulated as Bolero® 8EC, cafenstrole formulated as Himeadow® WP or Lapost® Flowable, benfuresate formulated as Full Shot®, dimethenamid-P formulated as Outlook®, indanofan (technical grade material), flufenacet formulated as Define® DF, mefenacet (technical grade material), S-metolachlor formulated as Dual® II Magnum, pethoxamid formulated as Successor® 600, and pyroxasulfone (technical grade material).
(§4) Treatment requirements were calculated based upon the rates being tested, the concentration of active ingredient or acid equivalent in the formulation, and a 12 mL application volume at a rate of 187 L/ha.
(§5) For treatments comprised of formulated compounds, measured amounts of compounds were placed individually in 25 mL glass vials and diluted in a volume of 1.25% (v/v) Agri-Dex® crop oil concentrated to obtain 12× stock solutions. […] Application solutions were prepared by adding an appropriate amount of each stock solution (e.g., 1 mL) and diluted to the appropriate final concentrations with the addition of 10 mL of an aqueous mixture of 1.25% (v/v) crop oil concentrate so that the final spray solutions contained 1.25+/−0.05% (v/v) crop oil concentrate.
(§6) For treatments comprised of technical compounds, weighed amounts can be placed individually in 25 mL glass vials and dissolved in a volume of 97:3 v/v acetone/DMSO to obtain 12× stock solutions. […] Application solutions can be prepared by adding an appropriate amount of each stock solution (e.g., 1 mL) and diluted to the appropriate final concentrations with the addition of 10 mL of an aqueous mixture of 1.5% (v/v) crop oil concentrate so that the final spray solutions contain 1.25% (v/v) crop oil concentrate. When technical materials are used, the concentrated stock solutions can be added to the spray solutions so that the final acetone and DMSO concentrations of the application solutions are […], respectively. […]

[2] = tested on: LEFCH; assay: as above; assay type: in vivo, Leptochloa chinensis (L.) Nees (Chinese sprangletop); settings: for Visual Weed Control (%) - 19 DAA LEFCH Obs / Visual Weed Control (%) - 22 DAA LEFCH Obs: foliar; for Visual Weed Control Obs: 20 DAA
Text: as §1, §2, §3, §4, §5, §6

[3] = tested on: LEFCH; assay: Example II: in-water applied weed control, transplanted paddy rice, greenhouse; assay type: in vivo, Leptochloa chinensis (L.) Nees (Chinese sprangletop); settings: 19 DAA
Procedure: (§7) Weed seeds or nutlets of the desired test plant species were planted in puddled soil (mud) prepared by mixing a shredded, non-sterilized mineral soil (50.5 percent silt, 25.5 percent clay, and 24 percent sand, with a pH of about 7.6 and an organic matter content of about 2.9 percent) and water at a 1:1 volumetric ratio. The prepared mud was dispensed in 365 mL aliquots into 16-ounce (oz.) non-perforated plastic pots with a surface area of 86.59 square centimeters (cm^2) leaving a headspace of 3 centimeters (cm) in each pot. Mud was allowed to dry overnight prior to planting or transplanting. Rice seeds were planted in Sun Gro MetroMix® 306 planting mixture, which typically has a pH of 6.0 to 6.8 and an organic matter content of about 30 percent, in plastic plug trays. Seedlings at the second or third leaf stage of growth were transplanted into 840 mL of mud contained in 32-oz. non-perforated plastic pots with a surface area of 86.59 cm^2 4 days prior to herbicide application. The paddy was created by filling the headspace of the pots with 2.5 to 3 cm of water. When required to ensure good germination and healthy plants, a fungicide treatment and/or other chemical or physical treatment was applied. The plants were grown for 4-22 days in a greenhouse with an approximate 14 hr photoperiod which was maintained at about 29′C during the day and 26° C. during the night. Nutrients were added as Osmocote® (19:6:12, N:P:K+ minor nutrients) at 2 g per 16-oz. pot and 4 g per 32-oz. pot. Water was added on a regular basis to maintain the paddy flood, and supplemental lighting was provided with overhead metal halide 1000-Watt lamps as necessary. The plants were employed for testing when they reached the first through fourth true leaf stage.
as §2, with “(compound A)” for “(Compound A),”, “concentrate)” for “concentrate),”
(§8) The herbicidal components were applied on an active ingredient basis and included very long chain fatty acid (VLCFA) synthesis-inhibiting and fatty acid/lipid synthesis-inhibiting herbicides acetochlor (technical grade material), acetochlor+dichlormid formulateded as Topnotch®, pretilachlor (technical grade material), butachlor formulated as Butachlor EC, fentrazamide formulated as Fentrazamide EC, thiobencarb formulated as Bolero® 8EC, cafenstrole formulated as Himeadow® WP or Lapost® Flowable, benfuresate formulated as Full Shot®, anilofos (technical grade material), mefenacet (technical grade material), molinate (technical grade material), and thenylchlor (technical grade material).
(§9) Treatment requirements for each compound or herbicidal component were calculated based upon the rates being tested, the concentration of active ingredient or acid equivalent in the formulation, an application volume of 2 mL per component per pot, and an application area of 86.59 cm^2 per pot.
(§10) For formulated compounds, a measured amount was placed in an individual 100 or 200 mL glass vial and was dissolved in a volume of 1.25% (v/v) Agri-Dex® crop oil concentrate to obtain application solutions.
(§11) For technical grade compounds, a weighed amount was placed in an individual 100 to 200 mL glass vial and was dissolved in a volume of acetone to obtain concentrated stock solutions. […] The concentrated stock solutions obtained were diluted with an equivalent volume of an aqueous mixture containing 2.5% (v/v) crop oil concentrate so that the final application solutions contained 1.25% (v/v) crop oil concentrate.
(§12) Applications were made by injecting with a pipetter appropriate amounts of the application solutions, individually and sequentially, into the aqueous layer of the paddy. Control plants were treated in the same manner with the solvent blank. […]

[4] = tested on: ECHCG; assay: as above; assay type: in vivo, Echinochloa crus-galli (L.) Beauv. (barnyardgrass)
Procedure: as §7
as §2, with “(compound A)” for “(Compound A),”, “concentrate)” for “concentrate),”
as §8, §9, §10, §11, §12

[5] = tested on: ECHOR; assay: as above; assay type: in vivo, Echinochloa oryzoides (Ard.) Fritsch (early watergrass)
Procedure: as §7
as §2, with “(compound A)” for “(Compound A),”, “concentrate)” for “concentrate),”
as §8, §9, §10, §11, §12

[6] = tested on: BRAPP; assay: Example I: postemergence foliar-applied weed control, direct seeded rice weeds, greenhouse; assay type: in vivo; settings: for Visual Weed Control Obs: 20 DAA; for Visual Weed Control (%) - 22 DAA BRAPP Obs: foliar
Text: as §1, §2, §3, §4, §5, §6

[7] = tested on: ECHCG; assay: Example I: postemergence foliar-applied weed control, greenhouse; assay type: in vivo, Echinochloa crus-galli (L.) Beauv. (barnyardgrass); settings: for Visual Weed Control Obs: 20 DAA
Text: as §1, §2, §3, §4, §5, §6

[8] = tested on: IPOHE; assay: as above; assay type: in vivo, Ipomoea hederacea Jacq. (ivyleaf morningglory); settings: 20 DAA
Text: as §1, §2, §3, §4, §5, §6

[9] = tested on: CYPRO; assay: Example II: in-water applied weed control, transplanted paddy rice, greenhouse; assay type: in vivo, Cyperus rotundus L. (purple nutsedge)
Procedure: as §7
as §2, with “(compound A)” for “(Compound A),”, “concentrate)” for “concentrate),”
as §8, §9, §10, §11, §12

[10] = tested on: CYPIR; assay: Example I: postemergence foliar-applied weed control, greenhouse; assay type: in vivo, Cyperus iria L. (rice flatsedge); settings: foliar
Text: as §1, §2, §3, §4, §5, §6

## CCC1(CC2(c3cccc(Cl)c3)CO2)C(=O)c2ccccc2C1=O (racemic) [Indanofan, (RS)-2-[[2-(3-chlorophenyl)oxiranyl]methyl]-2-ethyl-1H-indene-1,3(2H)-dione]
[1]; 37.5 gai/ha
  Visual Weed Control (%) - 19 DAA ECHCO Obs: 0%
[1]; 75 gai/ha
  Visual Weed Control (%) - 19 DAA ECHCO Obs: 0%
[1]; 150 gai/ha
  Visual Weed Control (%) - 19 DAA ECHCO Obs: 35%
[2]; 37.5 gai/ha
  Visual Weed Control (%) - 19 DAA LEFCH Obs: 0%
[2]; 75 gai/ha
  Visual Weed Control (%) - 19 DAA LEFCH Obs: 0%
[3]; 37.5 gai/ha
  Visual Weed Control LEFCH Obs: 10%
[3]; 75 gai/ha
  Visual Weed Control LEFCH Obs: 20%
[3]; 150 gai/ha
  Visual Weed Control LEFCH Obs: 95%

## CCCCOCN(C(=O)CCl)c1c(CC)cccc1CC [Butachlor, N-(butoxymethyl)-2-chloro-N-(2,6-diethylphenyl)acetamide]
[1]; 112.5 gai/ha
  Visual Weed Control Obs: 0%
[1]; 225 gai/ha
  Visual Weed Control Obs: 0%
[1]; 450 gai/ha
  Visual Weed Control Obs: 0%
[4]; 225 gai/ha
  Visual Weed Control (%) - 21 DAA ECHCG Obs: 40%
[4]; 450 gai/ha
  Visual Weed Control (%) - 21 DAA ECHCG Obs: 20%
[2]; 112.5 gai/ha
  Visual Weed Control Obs: 0%
[2]; 225 gai/ha
  Visual Weed Control Obs: 0%
[2]; 450 gai/ha
  Visual Weed Control Obs: 0%
[5]; 225 gai/ha
  Visual Weed Control (%) - 21 DAA ECHOR Obs: 0%
[5]; 450 gai/ha
  Visual Weed Control (%) - 21 DAA ECHOR Obs: 20%
[6]; 112.5 gai/ha
  Visual Weed Control Obs: 0%
[6]; 225 gai/ha
  Visual Weed Control Obs: 0%
[6]; 450 gai/ha
  Visual Weed Control Obs: 0%
[7]; 112.5 gai/ha
  Visual Weed Control Obs: 0%
[7]; 225 gai/ha
  Visual Weed Control Obs: 0%
[7]; 450 gai/ha
  Visual Weed Control Obs: 0%
[8]; 112.5 gai/ha
  Visual Weed Control Obs: 20%
[8]; 450 gai/ha
  Visual Weed Control Obs: 30%
[9]; 225 gai/ha
  Visual Weed Control (%) - 21 DAA CYPRO Obs: 0%
[9]; 450 gai/ha
  Visual Weed Control (%) - 21 DAA CYPRO Obs: 0%

## CN(C(=O)COc1nc2ccccc2s1)c1ccccc1 [Mefenacet, 2-(2-benzothiazolyloxy)-N-methyl-N-phenylacetamide]
[2]; 50 gai/ha
  Visual Weed Control (%) - 22 DAA LEFCH Obs: 10%
[2]; 100 gai/ha
  Visual Weed Control (%) - 22 DAA LEFCH Obs: 0%
[5]; Echinochloa oryzoides, 504 h, 300 gai/ha, 21 DAA, read-out: Visual Weed Control ECHOR Obs
  pest or weed control at 300 g/ha: 80%
[5]; Echinochloa oryzoides, 504 h, 600 gai/ha, 21 DAA, read-out: Visual Weed Control ECHOR Obs
  pest or weed control at 600 g/ha: 100%
[5]; Echinochloa oryzoides, 504 h, 1200 gai/ha, 21 DAA, read-out: Visual Weed Control ECHOR Obs
  pest or weed control at 1200 g/ha: 100%
[6]; 50 gai/ha
  Visual Weed Control (%) - 22 DAA BRAPP Obs: 0%
[6]; 100 gai/ha
  Visual Weed Control (%) - 22 DAA BRAPP Obs: 0%
[6]; 200 gai/ha
  Visual Weed Control (%) - 22 DAA BRAPP Obs: 0%
[10]; 100 gai/ha
  Visual Weed Control (%) - 22 DAA CYPIR Obs: 0%
[10]; 200 gai/ha
  Visual Weed Control (%) - 22 DAA CYPIR Obs: 20%

## CCSC(=O)N1CCCCCC1 [Molinate, S-ethyl hexahydro-1H-azepine-1-carbothioate]
[5]; Echinochloa oryzoides, 504 h, 1400 gai/ha, 21 DAA, read-out: Visual Weed Control ECHOR Obs
  pest or weed control at 1400 g/ha: 55%
[5]; Echinochloa oryzoides, 504 h, 2800 gai/ha, 21 DAA, read-out: Visual Weed Control ECHOR Obs
  pest or weed control at 2800 g/ha: 85%

## Cn1nc(C(F)(F)F)c(CS(=O)(=O)C2=NOC(C)(C)C2)c1OC(F)F [Pyroxasulfone, 3-[[[5-(difluoromethoxy)-1-methyl-3-(trifluoromethyl)-1H-pyrazol-4-yl]methyl]sulfonyl]-4,5-dihydro-5,5-dimethylisoxazole]
[6]; 29.5 gai/ha
  Visual Weed Control (%) - 22 DAA BRAPP Obs: 0%
[6]; 59 gai/ha
  Visual Weed Control (%) - 22 DAA BRAPP Obs: 0%
[6]; 118 gai/ha
  Visual Weed Control (%) - 22 DAA BRAPP Obs: 20%
[7]; 59 gai/ha, foliar
  Visual Weed Control (%) - 22 DAA ECHCG Obs: 70%

## COc1ccsc1CN(C(=O)CCl)c1c(C)cccc1C [Thenylchlor, 2-chloro-N-(2,6-dimethylphenyl)-N-[(3-methoxy-2-thienyl)methyl]acetamide]
[5]; Echinochloa oryzoides, 456 h, 135 gai/ha, 19 DAA, read-out: Visual Weed Control ECHOR Obs
  pest or weed control at 135 g/ha: 35%
[5]; Echinochloa oryzoides, 456 h, 270 gai/ha, 19 DAA, read-out: Visual Weed Control ECHOR Obs
  pest or weed control at 270 g/ha: 90%
[3]; 135 gai/ha
  Visual Weed Control LEFCH Obs: 15%
[3]; 270 gai/ha
  Visual Weed Control LEFCH Obs: 25%
